According to US8378104B2 (OSI Pharmaceuticals, LLC, priority 2010, dated 2013):
Where a name gives a salt, the structure may show the parent alone. Read-outs that look alike come from different tables or passages of the source.

What was measured:
[1] = biological target: T1, TAK1-TAB1 fusion protein (Homo sapiens, UniProt O43318); assay: TAK1 biochemical assay (AlphaScreen, GST-MAP2K7 substrate)
T1 construct: purchased Carna
T1 sequence (O43318 with tags, fused parts or gaps limits assumed): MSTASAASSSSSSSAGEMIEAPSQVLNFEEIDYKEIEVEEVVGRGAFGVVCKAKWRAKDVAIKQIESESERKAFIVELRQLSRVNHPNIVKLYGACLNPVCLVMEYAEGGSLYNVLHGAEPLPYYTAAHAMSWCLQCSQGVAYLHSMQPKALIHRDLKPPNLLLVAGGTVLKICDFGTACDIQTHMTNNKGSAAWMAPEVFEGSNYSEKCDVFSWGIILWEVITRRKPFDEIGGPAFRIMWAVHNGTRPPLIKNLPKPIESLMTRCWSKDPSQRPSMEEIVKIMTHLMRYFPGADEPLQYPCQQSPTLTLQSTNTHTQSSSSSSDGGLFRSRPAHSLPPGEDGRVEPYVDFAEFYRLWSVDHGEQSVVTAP

[2] = tested on: pJNK in HCT-116 cells; assay: Phospho-JNK (Thr183/Tyr185) Meso Scale ELISA assay, TNFα-stimulated HCT-116 cells; assay type: cell-based; conditions: Homo sapiens, read-out: mean HCT-116 pJNK ELISA IC50 (Col. B)
Method in brief: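 HCT-116 cells in 1% FCS medium were pretreated with compound for 4 hrs at 37° C, then stimulated with TNFα at 10 ng/mL final for 10 minutes. Lysates were taken in ice-cold lysis buffer with phosphatase and protease inhibitors, and phospho-JNK (Thr183/Tyr185) was measured by Meso Scale ELISA.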

[3] = tested on: p-p38 in HCT-116 cells; assay: Phospho-p38 Meso Scale ELISA assay, TNFα-stimulated HCT-116 cells; assay type: cell-based; conditions: Homo sapiens, read-out: mean HCT-116 p-p38 ELISA IC50 (Col. C)
Method in brief: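 HCT-116 cells in 1% FCS medium for 2 h, then compound for 4 h at 37° C, then TNFα at 10 ng/mL final for 10 min. Lysates captured overnight at 4° C and phospho-p38 quantified by Meso Scale electrochemiluminescence ELISA.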

[4] = TAK1-TAB1 fusion protein, GST-MAP2K7 substrate, read-out: mean TAK1 IC50 (Col. A)

| IC50 [1, 4] | IC50 [2] | IC50 [3] | IC50 [1] | Compound |
| --- | --- | --- | --- | --- |
| < 0.1 µM | 0.1 to 1 µM | 0.1 to 1 µM |  | CC(=O)N1CCC(n2cc(-c3cnc(N)c4oc(-c5cccc([N+](=O)[O-])c5C)cc34)cn2)CC1 [Example 218, 1-(4-{4-[7-amino-2-(2-methyl-3-nitrophenyl)furo[2,3-c]pyridin-4-yl]-1H-pyrazol-1-yl}piperidin-1-yl)ethanone] |
| 0.1 to 1 µM | 0.1 to 1 µM | 0.1 to 1 µM |  | CC(=O)N1CCC(n2cc(-c3cnc(N)c4oc(-c5csc6ccccc56)cc34)cn2)CC1 [Example 219, 1-(4-{4-[7-amino-2-(1-benzothiophen-3-yl)furo[2,3-c]pyridin-4-yl]-1H-pyrazol-1-yl}piperidin-1-yl)ethanone] |
| < 0.1 µM | < 0.1 µM | < 0.1 µM |  | CC(=O)N1CCC(n2cc(-c3cnc(N)c4oc(-c5cccc6nnsc56)cc34)cn2)CC1 [Example 224, 1-(4-{4-[7-amino-2-(1,2,3-benzothiadiazol-7-yl)furo[2,3-c]pyridin-4-yl]-1H-pyrazol-1-yl}piperidin-1-yl)ethanone diformate salt] |
| 0.1 to 1 µM | 1 to 10 µM | 1 to 10 µM |  | CC(=O)N1CCC(n2cc(-c3cnc(N)c4oc(-c5cccc6c5CC(=O)N6)cc34)cn2)CC1 [Example 227, 4-{4-[1-(1-acetylpiperidin-4-yl)-1H-pyrazol-4-yl]-7-aminofuro[2,3-c]pyridin-2-yl}-1,3-dihydro-2H-indol-2-one] |
|  | < 0.1 µM | < 0.1 µM | < 0.1 µM | Nc1ncc(-c2cnn([C@H]3CC[C@H](O)CC3)c2)c2cc(-c3cccc4nnsc34)oc12 [Example 229, trans-4-{4-[7-amino-2-(1,2,3-benzothiadiazol-7-yl)furo[2,3-c]pyridin-4-yl]-1H-pyrazol-1-yl}cyclohexanol] |
| 0.1 to 1 µM | 0.1 to 1 µM | 0.1 to 1 µM |  | Nc1ncc(-c2cnn([C@H]3CC[C@H](O)CC3)c2)c2cc(-c3ccc(F)c4cnsc34)oc12 [Example 230, trans-4-{4-[7-amino-2-(4-fluoro-1,2-benzothiazol-7-yl)furo[2,3-c]pyridin-4-yl]-1H-pyrazol-1-yl}cyclohexanol diformate salt] |
| 0.1 to 1 µM | < 0.1 µM | 0.1 to 1 µM |  | Nc1ncc(-c2cnn([C@H]3CC[C@H](O)CC3)c2)c2cc(-c3cc(F)cc4cnsc34)oc12 [Example 238, trans-4-{4-[7-amino-2-(5-fluoro-1,2-benzothiazol-7-yl)furo[2,3-c]pyridin-4-yl]-1H-pyrazol-1-yl}cyclohexanol diformate salt] |
| 1 to 10 µM | 0.1 to 1 µM | 1 to 10 µM |  | COc1cc2c(-c3cc4c(-c5cnn(C6CCN(C(C)=O)CC6)c5)cnc(N)c4o3)csc2cn1 [Example 243, 1-(4-{4-[7-amino-2-(5-methoxythieno[2,3-c]pyridin-3-yl)furo[2,3-c]pyridin-4-yl]-1H-pyrazol-1-yl}piperidin-1-yl)ethanone] |
| 0.1 to 1 µM | 1 to 10 µM | 1 to 10 µM |  | CC(=O)N1CCC(n2cc(-c3cnc(N)c4oc(-c5csc6cncnc56)cc34)cn2)CC1 [Example 260, 1-(4-{4-[7-amino-2-(thieno[3,2-d]pyrimidin-7-yl)furo[2,3-c]pyridin-4-yl]-1H-pyrazol-1-yl}piperidin-1-yl)ethanone] |
| 0.1 to 1 µM | < 0.1 µM | 0.1 to 1 µM |  | Nc1ncc(-c2cnn([C@H]3CC[C@H](O)CC3)c2)c2cc(-c3cncc4cnsc34)oc12 [Example 267, trans-4-{4-[7-amino-2-([1,2]thiazolo[4,5-c]pyridin-7-yl)furo[2,3-c]pyridin-4-yl]-1H-pyrazol-1-yl}cyclohexanol Diformate Salt] |
| < 0.1 µM | 1 to 10 µM | 0.1 to 1 µM |  | CNc1ncc(-c2cnn(C3CCN(C(C)=O)CC3)c2)c2cc(-c3c[nH]c4cnccc34)oc12 [Example 280, 1-(4-{4-[7-(methylamino)-2-(1H-pyrrolo[2,3-c]pyridin-3-yl)furo[2,3-c]pyridin-4-yl]-1H-pyrazol-1-yl}piperidin-1-yl)ethanone trifluoroacetic acid salt] |

Further lines, the molecule ahead of its results:

| Compound | IC50 [1, 4] | IC50 [2] | IC50 [3] | IC50 [1] |
| --- | --- | --- | --- | --- |
| CSc1ccccc1-c1cc2c(-c3cnn(C4CCN(C(C)=O)CC4)c3)cnc(N)c2o1 [Example 216, 1-[4-(4-{7-amino-2-[2-(methylsulfanyl)phenyl]furo[2,3-c]pyridin-4-yl}-1H-pyrazol-1-yl)piperidin-1-yl]ethanone] | 0.1 to 1 µM | 0.1 to 1 µM | 0.1 to 1 µM |  |
| CCSc1ccccc1-c1cc2c(-c3cnn(C4CCN(C(C)=O)CC4)c3)cnc(N)c2o1 [Example 217] | 0.1 to 1 µM | 0.1 to 1 µM | 0.1 to 1 µM |  |
| CC(=O)N1CCC(n2cc(-c3cnc(N)c4oc(-c5cccn6ccnc56)cc34)cn2)CC1 [Example 221, 1-(4-{4-[7-amino-2-(imidazo[1,2-a]pyridin-8-yl)furo[2,3-c]pyridin-4-yl]-1H-pyrazol-1-yl}piperidin-1-yl)ethanone bis(trifluoroacetate)] | 0.1 to 1 µM | 0.1 to 1 µM | 0.1 to 1 µM |  |
| CC(=O)N1CCC(n2cc(-c3cnc(N)c4oc(-c5c[nH]c6cc(C#N)ccc56)cc34)cn2)CC1 [Example 222, 3-{4-[1-(1-acetylpiperidin-4-yl)-1H-pyrazol-4-yl]-7-aminofuro[2,3-c]pyridin-2-yl}-1H-indole-6-carbonitrile] | 0.1 to 1 µM | 0.1 to 1 µM | 0.1 to 1 µM |  |
| CC(=O)N1CCC(n2cc(-c3cnc(N)c4oc(-c5cccc6cnsc56)cc34)cn2)CC1 [Example 226, 1-(4-{4-[7-amino-2-(1,2-benzothiazol-7-yl)furo[2,3-c]pyridin-4-yl]-1H-pyrazol-1-yl}piperidin-1-yl)ethanone] | < 0.1 µM | < 0.1 µM | < 0.1 µM |  |
| Nc1ncc(-c2cnn([C@H]3CC[C@H](O)CC3)c2)c2cc(-c3csc4cnccc34)oc12 [Example 233, trans-4-{4-[7-amino-2-(thieno[2,3-c]pyridin-3-yl)furo[2,3-c]pyridin-4-yl]-1H-pyrazol-1-yl}cyclohexanol] | < 0.1 µM | < 0.1 µM | < 0.1 µM |  |
| Nc1ncc(-c2cnn([C@H]3CC[C@H](O)CC3)c2)c2cc(-c3cccc4cnsc34)oc12 [Example 234, trans-4-{4-[7-amino-2-(1,2-benzothiazol-7-yl)furo[2,3-c]pyridin-4-yl]-1H-pyrazol-1-yl}cyclohexanol] | < 0.1 µM | < 0.1 µM | 0.1 to 1 µM |  |
| CC(=O)N1CCC(n2cc(-c3cnc(N)c4oc(-c5ccc6[nH]nc(C#N)c6c5)cc34)cn2)CC1 [Example 236, 5-{4-[1-(1-acetylpiperidin-4-yl)-1H-pyrazol-4-yl]-7-aminofuro[2,3-c]pyridin-2-yl}-1H-indazole-3-carbonitrile] | 0.1 to 1 µM | 1 to 10 µM | > 10 µM |  |
| Nc1ncc(-c2cnn([C@H]3CC[C@H](O)CC3)c2)c2cc(-c3c(F)ccc4cnsc34)oc12 [Example 240, trans-4-{4-[7-amino-2-(6-fluoro-1,2-benzothiazol-7-yl)furo[2,3-c]pyridin-4-yl]-1H-pyrazol-1-yl}cyclohexanol diformate salt] | 0.1 to 1 µM | < 0.1 µM | 0.1 to 1 µM |  |
| Nc1ncc(-c2cnn([C@H]3CC[C@H](O)CC3)c2)c2cc(-c3csc4cnc(F)cc34)oc12 [Example 249, trans-4-{4-[7-amino-2-(5-fluorothieno[2,3-c]pyridin-3-yl)furo[2,3-c]pyridin-4-yl]-1H-pyrazol-1-yl}cyclohexanol] | < 0.1 µM | < 0.1 µM | < 0.1 µM |  |
| CC(=O)N1CCC(n2cc(-c3cnc(N)c4oc(-c5c(C)sc6cnccc56)cc34)cn2)CC1 [Example 253, 1-(4-{4-[7-amino-2-(2-methylthieno[2,3-c]pyridin-3-yl)furo[2,3-c]pyridin-4-yl]-1H-pyrazol-1-yl}piperidin-1-yl)ethanone trifluoroacetate] | < 0.1 µM | 0.1 to 1 µM | 1 to 10 µM |  |
| CC(=O)N1CCC(n2cc(-c3cnc(N)c4oc(-c5csc6cncc(F)c56)cc34)cn2)CC1 [Example 254, 1-(4-{4-[7-amino-2-(4-fluorothieno[2,3-c]pyridin-3-yl)furo[2,3-c]pyridin-4-yl]-1H-pyrazol-1-yl}piperidin-1-yl)ethanone trifluoroacetic Acid Salt] | < 0.1 µM | 0.1 to 1 µM | 0.1 to 1 µM |  |
| CC(=O)N1CCC(n2cc(-c3cnc(N)c4oc(-c5cncc6cnsc56)cc34)cn2)CC1 [Example 262, 1-(4-{4-[7-amino-2-([1,2]thiazolo[4,5-c]pyridin-7-yl)furo[2,3-c]pyridin-4-yl]-1H-pyrazol-1-yl}piperidin-1-yl)ethanone Diformate Salt] | 0.1 to 1 µM | 0.1 to 1 µM | 0.1 to 1 µM |  |
| CNc1ncc(-c2cnn([C@H]3CC[C@H](O)CC3)c2)c2cc(-c3csc4cnccc34)oc12 [Example 281, trans-4-{4-[7-(methylamino)-2-(thieno[2,3-c]pyridin-3-yl)furo[2,3-c]pyridin-4-yl]-1H-pyrazol-1-yl}cyclohexanol] | < 0.1 µM | < 0.1 µM | < 0.1 µM |  |
